The results in this text go back to patent publication US20090163508A1, “AMIDE COMPOUND” (TAKEDA PHARMACEUTICAL COMPANY LIMITED, priority 2007, published 2009).

Each structure is given as a SMILES string.

The test system of the assay is mouse. In words: Analgesic effect in acetic acid writhing test on mouse. The conditions noted are these: po, 20 min, 10 mg/kg orally, 60 minutes before 0.6% acetic acid i.p., count over 20 minutes relative to the reference group. The format is in vivo. How it is done: A suspension of the test compound (10 mg/kg) was orally administered to a mouse. 60 minutes after the administration, a 0.6% aqueous acetic acid solution was intraperitoneally administered in an amount of 10 mL/kg. The mouse was accommodated in a special cage from immediately after the administration until 20 minutes after, and the writhing response was counted. The mean count number was compared relative to the reference group, so as to examine the difference (student's t-test), and the analgesic effect was evaluated.
(In general: Writhing tests count abdominal constrictions after an irritant is injected.)
In turn, `O=C(Nc1cccnc1)N1CCN(c2nccc(-c3ccccc3)n2)CC1` [Example 77, 4-(4-phenylpyrimidin-2-yl)-N-pyridin-3-ylpiperazine-1-carboxamide] gave a response vs control in vivo at 10 mg/kg of 46.8%.
Take `O=C(Nc1cccnn1)N1CCN(c2nccc(-c3ccc(F)c(F)c3)n2)CC1` [Example 110, 4-[4-(3,4-difluorophenyl)pyrimidin-2-yl]-N-pyridazin-3-ylpiperazin-1-carboxamide]: the response vs control in vivo at 10 mg/kg was determined as 34.7%.
`Cc1noc(NC(=O)N2CCN(c3ccnc(-c4cccc(F)c4F)n3)CC2)c1C` [Example 5, 4-[2-(2,3-difluorophenyl)pyrimidin-4-yl]-N-(3,4-dimethylisoxazol-5-yl)piperazine-1-carboxamide] gave a response vs control in vivo at 10 mg/kg of 42.2%.
The value for `O=C(Nc1cccnc1)N1CCN(c2nccc(-c3ccc(F)cc3F)n2)CC1` [Example 15, 4-[4-(2,4-difluorophenyl)pyrimidin-2-yl]-N-pyridin-3-ylpiperazine-1-carboxamide] was 66.7%.
The value for `Cc1noc(NC(=O)N2CCN(c3cncc(-c4ccc(F)cc4F)n3)CC2)c1C` [Example 14, 4-[6-(2,4-difluorophenyl)pyrazin-2-yl]-N-(3,4-dimethylisoxazol-5-yl)piperazine-1-carboxamide] was 67.2%; that for `O=C(Nc1cccnn1)N1CCN(c2nccc(-c3ccc(F)cc3F)n2)CC1` [Example 17, 4-[4-(2,4-difluorophenyl)pyrimidin-2-yl]-N-pyridazin-3-ylpiperazine-1-carboxamide] was 56.9%; that for `O=C(Nc1cccnn1)N1CCN(c2nccc(-c3ccccc3)n2)CC1` [Example 79, 4-(4-phenylpyrimidin-2-yl)-N-pyridazin-3-ylpiperazine-1-carboxamide] was 38.9%.
Regarding `Cc1noc(NC(=O)N2CCN(c3cc(-c4ccc(F)cc4F)ncn3)CC2)c1C` [Example 19, 4-[6-(2,4-difluorophenyl)pyrimidin-4-yl]-N-(3,4-dimethylisoxazol-5-yl)piperazine-1-carboxamide], the response vs control in vivo at 10 mg/kg is 51.9%.
